{"source": "paper PMC12282101", "about": "“Heat shock protein 90 chaperone activity is required for hepatitis A virus replication” (Journal of Virology, 2025)", "key": {"18f-NLuc reporter virus [1]": {"test_system": "18f-NLuc reporter virus", "format": "cell-based, Hepatitis A virus"}, "HAV [2]": {"test_system": "HAV", "assay": "microbe, parasite or virus in culture", "format": "cell-based, Hepatitis A virus", "details": "read-out: IC50, HAV replication by RT-qPCR"}, "[3]": {"test_system": "mouse-passaged HM175 strain of HAV", "parameters": "species or system Ifnar1^-/- mice", "details": "in vivo, ip"}, "HM175/18f virus [4]": {"test_system": "HM175/18f virus"}, "18f-NLuc reporter virus [5]": {"test_system": "18f-NLuc reporter virus", "assay": "microbe, parasite or virus in culture", "format": "cell-based, Hepatitis A virus", "details": "read-out: IC50, HAV replication by NLuc", "experimental": "Cells were lysed in 1× passive lysis buffer (Promega, #E1941) for 15 min at room temperature, then lysates were transferred to opaque white 96-well plates (Corning, #3912). NLuc activity was quantified using the NLuc GLOW Assay kit (Nanolight Technology, #325), and FLuc assays were carried out with the Luciferase Assay System (Promega, E1500). Luminescence was measured using a Biotek Synergy II multi-mode plate reader (BioTek Instruments)."}, "293T cells": {"test_system": "293T cells", "assay": "Cytotoxicity in 293T cells"}, "Huh-7.5.1 cells [6]": {"test_system": "Huh-7.5.1 cells", "details": "Huh-7.5 or Huh-7.5.1 cells, RT-qPCR experiments"}, "HAV IRES": {"test_system": "HAV IRES", "format": "cell-based, Hepatitis A virus", "details": "100 nM"}, "18f-NLuc reporter virus [7]": {"test_system": "18f-NLuc reporter virus", "assay": "microbe, parasite or virus in culture", "format": "cell-based, Hepatitis A virus", "details": "Hepatovirus A, Huh-7.5.1, 72 h, read-out: Normalized HAV production"}, "3C^pro [8]": {"test_system": "3C^pro", "format": "cell-based, Hepatitis A virus"}, "HAV [9]": {"test_system": "HAV", "assay": "microbe, parasite or virus in culture", "format": "cell-based, Hepatitis A virus", "details": "Hepatovirus A; 30 nM, Huh-7.5.1 cells; read-out: Inhibition of infectious virus released"}, "in vitro [10]": {"assay": "in vitro", "details": "rhesus monkey, CC50, FRhK4 cells"}, "HAV [11]": {"test_system": "HAV", "details": "FRhK4 fetal rhesus kidney cells; ref 16 Aragonès et al.; read-out: IC50, HAV replication; cited from earlier work"}, "poliovirus": {"test_system": "poliovirus", "details": "HeLa S3 cells; read-out: IC50, poliovirus replication; cited from earlier work"}, "18f-NLuc reporter virus [12]": {"test_system": "18f-NLuc reporter virus", "assay": "microbe, parasite or virus in culture", "details": "Hepatovirus A, Huh7.5, 48 h, read-out: IC50, HAV replication by NLuc"}, "18f-NLuc reporter virus [13]": {"test_system": "18f-NLuc reporter virus", "assay": "microbe, parasite or virus in culture", "format": "cell-based, Hepatitis A virus", "details": "Hepatovirus A, FRhK-4, 48 h, read-out: IC50, HAV replication by NLuc"}, "HM175/18f virus [14]": {"test_system": "HM175/18f virus", "assay": "microbe, parasite or virus in culture", "details": "Hepatovirus A"}, "HAV-FLuc": {"test_system": "HAV-FLuc", "assay": "microbe, parasite or virus in culture", "format": "cell-based, Hepatitis A virus"}, "in vitro [15]": {"assay": "in vitro", "details": "human, CC50, Huh-7.5 cells, cellular ATP assay"}, "Huh-7.5.1 cells [16]": {"test_system": "Huh-7.5.1 cells", "assay": "Cell viability in the chemical screen (Cell TiterGlo)", "details": "10 µM compound, 72 h"}, "18f virus": {"test_system": "18f virus", "format": "cell-based, Hepatitis A virus", "details": "cells infected 72 h, then treated 24 h"}, "ACC1": {"test_system": "ACC1", "assay": "Immunoblot of ACC1 in Huh-7.5 cells", "format": "cell-based, human", "details": "200 nM, 24 hours"}, "PV1-NLuc [17]": {"test_system": "PV1-NLuc", "assay": "microbe, parasite or virus in culture", "format": "cell-based, type 1 poliovirus", "details": "Enterovirus C, Huh7.5, 16 h, read-out: IC50, PV1-NLuc replication"}, "PV1-NLuc [18]": {"test_system": "PV1-NLuc", "assay": "microbe, parasite or virus in culture", "format": "cell-based, type 1 poliovirus", "details": "Enterovirus C, FRhK-4, 16 h, read-out: IC50, PV1-NLuc replication"}, "3C^pro [19]": {"test_system": "3C^pro", "format": "cell-based, Hepatitis A virus", "remark": "listed apart in the source"}, "PeV-A1-NLuc": {"test_system": "PeV-A1-NLuc", "format": "cell-based, human parechovirus A1", "details": "A549 cells"}, "RV-B14-FLuc": {"test_system": "RV-B14-FLuc", "format": "cell-based, rhinovirus B14", "details": "up to 1 µM, Huh-7.5 cells"}}, "note": "Entries after “also recorded” stand apart in the source; their conditions may differ. Like-named read-outs stand apart in the source and are kept apart here.", "data": [{"smiles": "C=CCNC1=C2C[C@@H](C)C[C@H](OC)[C@H](O)[C@@H](C)/C=C(\\C)[C@H](OC(N)=O)[C@@H](OC)/C=C\\C=C(/C)C(=O)NC(=CC1=O)C2=O", "note": "[17-AAG]", "values": [{"measurement": "NLuc expression at 48 hours post-infection", "setting": "18f-NLuc reporter virus [1]", "value": "neither case did either HSP90 inhibitor reduce NLuc expression"}, {"measurement": "IC50", "setting": "HAV [2]; PH5CH8 cells", "value": 0.0032, "unit": "µM"}, {"measurement": "Area occupied by IBA-positive cells in liver section", "setting": "[3]", "value": "significantly reduced"}, {"measurement": "Increase in serum alanine aminotransferase (ALT) activity versus vehicle", "setting": "[3]", "value": "significantly lower"}, {"measurement": "Inflammatory cell infiltrates in liver sections (H&E)", "setting": "[3]", "value": "notably fewer and smaller in size"}, {"measurement": "Number of IBA1-positive cells in liver section", "setting": "[3]", "value": "significantly reduced"}, {"measurement": "Viral RNA in feces versus vehicle", "setting": "[3]", "value": "significantly reduced"}, {"measurement": "Viral RNA in liver versus vehicle", "setting": "[3]", "value": "significantly reduced"}, {"measurement": "Viral RNA in serum versus vehicle", "setting": "[3]", "value": "significantly reduced"}, {"measurement": "Fold by which IC50 is below CC50", "setting": "HM175/18f virus [4]; hepatocyte-derived cells, RT-qPCR", "value": "approximately 30 fold"}, {"measurement": "IC50", "setting": "HM175/18f virus [4]; read-out: IC50, HAV replication by RT-qPCR", "value": 0.0142, "unit": "µM"}, {"measurement": "IC50", "setting": "18f-NLuc reporter virus [5]; 293T cells", "value": 0.0117, "unit": "µM"}, {"measurement": "CC50", "setting": "293T cells", "value": "> 1", "unit": "µM"}, {"measurement": "CC50", "setting": "Huh-7.5.1 cells [6]", "value": 0.418, "unit": "µM"}, {"measurement": "GFP synthesis from circRNA HAV IRES reporter", "setting": "HAV IRES", "value": "neither geldanamycin nor 17-AAG inhibited; also recorded: had no effect"}]}, {"smiles": "COC1=C2C[C@@H](C)C[C@H](OC)[C@H](O)[C@@H](C)/C=C(\\C)[C@H](OC(N)=O)[C@@H](OC)/C=C\\C=C(/C)C(=O)NC(=CC1=O)C2=O", "note": "[Geldanamycin]", "values": [{"measurement": "NLuc expression at 48 hours post-infection", "setting": "18f-NLuc reporter virus [1]", "value": "neither case did either HSP90 inhibitor reduce NLuc expression"}, {"measurement": "IC50", "setting": "HAV [2]; Hepatovirus A", "value": 0.0043, "unit": "µM"}, {"measurement": "activity at 10 µM", "setting": "18f-NLuc reporter virus [7]", "value": 0.0718, "unit": "%"}, {"measurement": "Inhibition of 3ABCD processing", "setting": "3C^pro [8]; 0.1 µM", "value": "no inhibition"}, {"measurement": "Amount of 3ABC product from HA-3ABCD", "setting": "3C^pro [8]; 1 µM", "value": "modestly reduced"}, {"measurement": "inhibition at 0.03 µM", "setting": "HAV [9]", "value": "> 50", "unit": "%"}, {"measurement": "CC50", "setting": "in vitro [10]", "value": "> 10", "unit": "µM"}, {"measurement": "CC50", "setting": "in vitro [10]; cellular ATP assay", "value": 59, "unit": "µM"}, {"measurement": "IC50", "setting": "HAV [11]", "value": 5.37, "unit": "µM"}, {"measurement": "IC50", "setting": "poliovirus", "value": 0.11, "unit": "µM"}, {"measurement": "IC50", "setting": "18f-NLuc reporter virus [12]", "value": 0.0087, "unit": "µM"}, {"measurement": "IC50", "setting": "18f-NLuc reporter virus [13]", "value": 0.804, "unit": "µM"}, {"measurement": "IC50", "setting": "HM175/18f virus [14]; Huh7.5, in Homo sapiens, read-out: 50% inhibitory concentration, HAV replication", "value": "0.0087 to 0.0118", "unit": "µM"}, {"measurement": "IC50", "setting": "HM175/18f virus [14]; Huh-7.5.1, read-out: IC50, HAV replication by RT-qPCR", "value": 0.0118, "unit": "µM"}, {"measurement": "Replication of subgenomic HAV RNA replicon (in words)", "setting": "HAV-FLuc", "value": "potently inhibited"}, {"measurement": "IC50", "setting": "HAV-FLuc; Hepatovirus A, Huh7.5, 24 h, read-out: IC50, HAV-FLuc replicon", "value": 0.0291, "unit": "µM"}, {"measurement": "CC50", "setting": "in vitro [15]", "value": 5.1, "unit": "µM"}, {"measurement": "IC50", "setting": "18f-NLuc reporter virus [5]; Hepatovirus A, HEK-293T", "value": 0.0047, "unit": "µM"}, {"measurement": "Viability Percent DMSO", "setting": "Huh-7.5.1 cells [16]", "value": 61, "unit": "Percent DMSO"}, {"measurement": "VP1 and 3ABC proteins in infected cell lysates", "setting": "18f virus", "value": "concentration-related decreases"}, {"measurement": "Abundance of ACC1", "setting": "ACC1", "value": "did not reduce"}, {"measurement": "IC50", "setting": "PV1-NLuc [17]", "value": 0.183, "unit": "µM"}, {"measurement": "IC50", "setting": "PV1-NLuc [18]", "value": "> 10", "unit": "µM"}, {"measurement": "GFP synthesis from circRNA HAV IRES reporter", "setting": "HAV IRES", "value": "had no effect"}, {"measurement": "GFP synthesis from circRNA HAV IRES reporter", "setting": "HAV IRES; listed as geldanamycin", "value": "neither geldanamycin nor 17-AAG inhibited"}, {"measurement": "Cleavage of GFP-MAVS by 3ABC", "setting": "3C^pro [19]", "value": "no impact"}, {"measurement": "Replication of subgenomic human parechovirus A1 replicon (in words)", "setting": "PeV-A1-NLuc", "value": "minimally inhibits; also recorded: resistant"}, {"measurement": "Luciferase expression from subgenomic rhinovirus B14 replicon (in words)", "setting": "RV-B14-FLuc", "value": "does not inhibit"}, {"measurement": "Luciferase expression from subgenomic rhinovirus B14 replicon (in words)", "setting": "RV-B14-FLuc; listed as geldanamycin", "value": "fails to inhibit"}]}]}
